Consider 17 compounds from US8580829B2 (Boehringer Ingelheim International GmbH, priority 2010, dated 2013).

The subject of assay [1] is apoE/LDL-R double knockout mice. Particulars: oral dosing, high-fat diet from 2 months of age to 6 months; cited from earlier work.
In another assay the test system is ApoE−/−xCD4dnTβRII mice. Particulars: infusion, treated for four weeks; cited from earlier work.
The subject of assay [2] is biomarkers for myocardial infarction risk. Particulars: clinical trial; cited from earlier work.
In the next assay the test system is human glomerulonephritis. Particulars: clinical trial; cited from earlier work.
In assay [3] the target is T1, recombinant human FLAP protein (Homo sapiens, UniProt P20292).
T1 construct: made in house; host or cells: Sf9 insect cells (100,000 x g membrane fraction)
T1 sequence (P20292 1-161): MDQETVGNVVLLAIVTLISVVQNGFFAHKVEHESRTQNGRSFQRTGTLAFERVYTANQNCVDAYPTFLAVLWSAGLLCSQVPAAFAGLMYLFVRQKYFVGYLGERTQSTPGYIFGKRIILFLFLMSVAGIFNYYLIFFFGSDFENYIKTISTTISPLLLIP
The assay is described as follows: FLAP binding assay (Scintillation Proximity Assay, displacement of [125I]L-691,831). Particulars: recombinant human FLAP membranes, [125I]L-691,831 probe; read-out: FLAP SPA IC50. In a few lines:
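Membranes came from Sf9 insect cells expressing recombinant human FLAP, collected as the 100,000×g pellet in Tris pH 7.5/MgCl2/EDTA buffer. 5 μg membrane protein was coupled to WGA SPA beads for 1 h.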

The subject of assay [4] is synthesis of LTB4 in human whole blood. The assay is described as follows: human whole blood LTB4 production inhibition assay. In kind it is cell-based. Particulars: heparinized human whole blood, calcimycin 20 μM, read-out: hWB LTB4 IC50. The essentials:
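Whole-blood cellular format, heparinized human donors: 15 min compound pretreatment, then 30 min calcimycin stimulation (20 μM final), both at 37° C. Low-speed centrifugation yields plasma, in which LTB4 is read by homogeneous time-resolved fluorescence immunoassay.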

pIC50: −log10 of the molar value. Read-outs that look alike come from different tables or passages of the source.

Take `CC(C)c1ccc2c(c1)c(SC(C)(C)C)c(CC(C)(C)C(=O)O)n2Cc1ccc(Cl)cc1` [MK-886]: in assay [1], the “decrease in plaque coverage in the aorta” value is listed as 56% and the “decrease in plaque coverage in the aortic root” value is on record as 43%. In addition, in the assay with ApoE−/−xCD4dnTβRII mice, the “decrease in plaque area in the aortic root” value is around 40%.
Consider `O=C(O)[C@@H](c1ccc(OCc2ccc3ccccc3n2)cc1)C1CCCC1` [DG-031], for which the “effect on biomarkers for myocardial infarction risk” value in assay [2] was “dose-dependent suppression of several biomarkers”.
`CC(C)(C)Sc1c(CC(C)(C)C(=O)O)n(Cc2ccc(Cl)cc2)c2ccc(OCc3ccc4ccccc4n3)cc12` [MK-591]: in the assay with human glomerulonephritis, the effect on proteinuria result is on record as “reduce proteinuria”.
For the compound `CN(C(=O)Cn1cc(-c2nc(C3(c4ccc(-c5cnc(N)nc5)cc4)CCC3)no2)cn1)C1CCOCC1` [Example 235, 2-[4-(3-{1-[4-(2-Amino-pyrimidin-5-yl)-phenyl]-cyclobutyl}-[1,2,4]oxadiazol-5-yl)-pyrazol-1-yl]-N-methyl-N-(tetrahydro-pyran-4-yl)-acetamide], the figures for the pIC50 in assay [3] and in assay [4] (Homo sapiens) were 8.77 and 7.17, respectively.
As for `CCN(C)C(=O)Cn1cc(-c2nc(C3(c4ccc(-c5cnc(N)nc5)cc4)CCC3)no2)cn1` [Example 206, 2-[4-(3-{1-[4-(2-Amino-pyrimidin-5-yl)-phenyl]-cyclobutyl}-[1,2,4]oxadiazol-5-yl)-pyrazol-1-yl]-N-ethyl-N-methyl-acetamide], the pIC50 – broadly, the negative decadic logarithm of the IC50, by convention in mol/L – was 8.37 in assay [3] and 7.42 in assay [4].
As to `CO[C@@H]1CCN(C(=O)Cn2cc(-c3nc(C4(c5ccc(-c6cnc(N)nc6)cc5)CCC4)no3)cn2)C1` [Example 256, 2-[4-(3-{1-[4-(2-Amino-pyrimidin-5-yl)-phenyl]-cyclobutyl}-[1,2,4]oxadiazol-5-yl)-pyrazol-1-yl]-1-((R)-3-methoxy-pyrrolidin-1-yl)-ethanone], the pIC50 in assay [3] is 7.66; in assay [4] (Homo sapiens) it was 6.66.
`CN(C)S(=O)(=O)n1cc(-c2nc(C3(c4ccc(-c5cnc(N)nc5)cc4)CCC3)no2)cn1` [Example 135]: the pIC50 in assay [3] is 7.98; in assay [4] (Homo sapiens) it was 6.72.
Regarding `Nc1ncc(-c2ccc(C3(c4noc(COCc5ccccc5)n4)CCOCC3)cc2)cn1` [Example 151, 5-{4-[4-(5-Benzyloxymethyl-1,2,4-oxadiazol-3-yl)-tetrahydro-pyran-4-yl]-phenyl}-pyrimidin-2-ylamine], the pIC50 in assay [3] was 6.68; in assay [4] (Homo sapiens) it was below 5.30.
In the case of `CC(C)N(C)C(=O)Cn1cc(-c2nc(C3(c4ccc(-c5cnc(N)nc5)cc4)CCC3)no2)cn1` [Example 139, 2-[4-(3-{1-[4-(2-Amino-pyrimidin-5-yl)-phenyl]-cyclobutyl}-1,2,4-oxadiazol-5-yl)-pyrazol-1-yl]-N-isopropyl-N-methyl-acetamide], the figures for the pIC50 in assay [3] and in assay [4] (Homo sapiens) were 8.59 and 7.02, respectively.
For `CN(C(=O)Cn1cc(-c2nc(C3(c4ccc(-c5cnc(N)nc5)cc4)CCC3)no2)cn1)C1CC1` [Example 141, 2-[4-(3-{1-[4-(2-Amino-pyrimidin-5-yl)-phenyl]-cyclobutyl]-1,2,4-oxadiazol-5-yl)-pyrazol-1-yl]-N-cyclopropyl-N-methyl-acetamide] the same measures were 9.05 and 7.37.
Consider `N#Cc1cccc(-c2nc(C3(c4ccc(-c5cnc(N)nc5)cc4)CCC3)no2)c1` [Example 41, 3-(3-{1-[4-(2-Amino-pyrimidin-5-yl)-phenyl]-cyclobutyl}-1,2,4-oxadiazol-5-yl)-benzonitrile], for which the pIC50 is 8.09 in assay [3] and 6.03 in assay [4] (Homo sapiens).
For `Nc1ncc(-c2ccc(C3(c4noc(N5CCC[C@@H]5CO)n4)CCC3)cc2)cn1` [Example 289, [(R)-1-(3-{1-[4-(2-Amino-pyrimidin-5-yl)-phenyl]-cyclobutyl}-[1,2,4]oxadiazol-5-yl)-pyrrolidin-2-yl]-methanol] the same measures were 7.51 and 6.30.
For `CCNc1nc(C2(c3ccc(-c4cnc(N)nc4)cc3)CCC2)no1` [Example 24, 5-{4-[1-(5-Ethylamino-1,2,4-oxadiazol-3-yl)-cyclobutyl]-phenyl}-pyrimidin-2-ylamine] the same measures were 7.96 and 6.34.
For `CC(C)N1CCN(C(=O)Cn2cc(-c3nc(C4(c5ccc(-c6cnc(N)nc6)cc5)CCC4)no3)cn2)CC1` [Example 243, 2-[4-(3-{1-[4-(2-Amino-pyrimidin-5-yl)-phenyl]-cyclobutyl}-[1,2,4]oxadiazol-5-yl)-pyrazol-1-yl]-1-(4-isopropyl-piperazin-1-yl)-ethanone] the same measures were 8.07 and 6.70.
`Cn1ccc(-c2nc(C3(c4ccc(-c5cnc(N)nc5)cc4)CCC3)no2)cc1=O` [Example 21, 4-(3-{1-[4-(2-Amino-pyrimidin-5-yl)-phenyl]-cyclobutyl}-1,2,4-oxadiazol-5-yl)-1-methyl-1H-pyridin-2-one]: the pIC50 in assay [3] is 8.51; in assay [4] (Homo sapiens) it was 6.80.
For `Nc1ncc(-c2ccc(C3(c4noc(-c5ccc(C(=O)N6CCC6)nc5)n4)CCC3)cc2)cn1` [Example 70, [5-(3-{1-[4-(2-Amino-pyrimidin-5-yl)-phenyl]-cyclobutyl}-1,2,4-oxadiazol-5-yl)-pyridin-2-yl]-azetidin-1-yl-methanone] the same measures were 8.52 and 6.66.
Turning to `CS(=O)(=O)CCn1cc(-c2nc(C3(c4ccc(-c5cnc(N)nc5)cc4)CCC3)no2)cn1` [Example 231, 5-[4-(1-{5-[1-(2-Methanesulfonyl-ethyl)-1H-pyrazol-4-yl]-[1,2,4]oxadiazol-3-yl}-cyclobutyl)-phenyl]-pyrimidin-2-ylamine], the pIC50 in assay [3] is 8.64; in assay [4] (Homo sapiens), 7.21.
